Consider 51 compounds from PubChem BioAssay AID179 (DTP/NCI, 2004).

The test deals with CEM cells HIV-1 protection, formazan growth assay. The test is described as follows: NCI AIDS Antiviral Assay. The following applies: for pIC50: measured here: growth of uninfected CEM cells. The essentials: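 Human CEM cells, uninfected and HIV-1-infected, exposed to five drug concentrations; growth measured by soluble formazan assay and scored as percent protection from infection, with protecting compounds retested.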

pEC50, pIC50: −log10 of the molar value. Values joined by “and” are separate entries in the source; they are usually repeats but may differ in a detail not shown here. Equal entries are not always repeated. Active and inactive are the calls of the source.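 The calls were made as follows: active = compounds giving half or more protection of infected cells from virus-caused growth loss, again on retest; inactive = the rest.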

As a reminder, the pEC50 is the negative decadic logarithm of the EC50, by convention in mol/L. For orientation: pIC50 means the IC50 on a negative log10 scale, so that one unit is a factor of ten. A lower pIC50 goes with a high IC50.

Consider `[N-]=[N+]=Nc1c(Br)c(=O)[nH]c(=O)n1COCCO`, for which the result was inactive. Regarding `Nc1nc2c(ncn2C2OC(CO)CC2F)c(=O)[nH]1` (stereo not drawn), the outcome was active. For `C#CCN1CCC2=C(C1)c1c(O)cc(C(C)C(C)CCCCC)cc1OC2(C)C` (stereo not drawn), the pEC50 is less than 4.49 and the pIC50 was 4.83.

In the case of `Cc1ccc(S(=O)(=O)NC(C)C(=O)O)cc1` (stereo not drawn), the result was inactive. In the case of `BrC/C=C/C[P+](c1ccccc1)(c1ccccc1)c1ccccc1`, the pEC50 was less than 5.28 and the negative-log IC50 (pIC50) is 6.22.

Consider `CN(C)Cc1cc(N=Nc2ccccc2)cc(CN(C)C)c1O`, for which the pEC50 was less than 3.70 and the pIC50 was 3.99. As to `C/C(CC(=O)Nc1ccc(C)cc1)=N\NC(N)=S`, the pEC50 was less than 3.31 and the negative-log IC50 (pIC50) is 3.61. Take `Cc1c(Cl)c(=O)oc2cc(OCC(O)COC(C)C)ccc12` (stereo not drawn): the outcome was inactive. As to `N#C/C(=C/C=C/c1ccco1)C(N)=O`, the pEC50 is less than 3.70 and the pIC50 is less than 3.70. On to `Cc1cc(S(=O)(=O)O)ccc1N=Nc1ccc(N=Nc2cc(S(=O)(=O)O)c3ccccc3c2O)c(C)c1`, for which the pEC50 is less than 4.00 and the pIC50 is less than 4.00. For `O=C1C(=Cc2cccc(O)c2)N=C(c2ccccc2)N1n1c(-c2ccccc2)nc2ccccc2c1=O`, the pEC50 is less than 3.70 and the pIC50 was 5.07.

Consider `Cc1c(NC(=S)NN)c(=O)n(-c2ccccc2)n1C`, for which the pEC50 was less than 3.70 and the negative logarithm of the IC50 (pIC50) is less than 3.70. For `N#Cc1ccc(NC(=O)C(CC(=O)OCc2ccccc2)NC(=O)OCc2ccccc2)cc1` (stereo not drawn), the pEC50 is less than 3.70 and the pIC50 is less than 3.70. On to `CCC12C=CCN3CC[C@@]4(c5cc([C@@]6(C(=O)OC)CC7CN(C[C@]8(CC)OC78)[C@H](CC(C)=O)Cc7c6[nH]c6ccccc76)c(OC)cc5N(C)[C@H]4[C@@](O)(C(=O)OC)[C@@H]1OC(C)=O)[C@H]32` (stereo partly drawn), for which the outcome was inactive. For `O=C(c1ccccc1)c1ccc(C(c2c(O)c3ccccc3oc2=O)c2c(O)c3ccccc3oc2=O)cc1`, the pEC50 is less than 3.70 and the pIC50 was 4.46.

For the compound `COc1ccc(NC(=O)CC(=O)Nc2ccc(OC)cc2)cc1`, the pEC50 was 3.77 and the pIC50 is less than 3.70.

With `O=C1CCCn2c(nc3ccccc32)N1`, the pEC50 was less than 3.70 and the pIC50 was less than 3.70. Regarding `COC(=O)C1=C(C)N(NC(=O)c2cccc(Cl)c2)C(C)(O)C12CCOC2=O` (stereo not drawn), the pEC50 was less than 3.20 and the negative logarithm of the IC50 (pIC50) is 3.56. `COc1ccc(-c2cc(=O)c3c(O)cccc3o2)cc1`: the pEC50 was less than 3.70 and the pIC50 was less than 3.70. As to `COC(=O)C1C(=O)CC(C)(O)C(C(=O)OC)C1c1ccc(N(C)C)cc1` (stereo not drawn), the pEC50 is less than 3.70 and the pIC50 was less than 3.70.

As for `Nc1ccc2c(C(F)(F)F)cc(=O)oc2c1`, the pEC50 was less than 4.64 and the pIC50 is less than 4.64. On to `CC(C(=O)O)/C(=C\c1ccc2c(c1)OCO2)C(=O)O` (stereo not drawn), for which the result was inactive. Regarding `C=CC1(O)CCCC=C1COCc1ccccc1` (stereo not drawn), the pEC50 is less than 3.70 and the pIC50 is 4.48.

`CC1(C)CN=CC(C)(OCc2ccccc2)C(=O)NC(C)(C)CN=CC(C)(OCc2ccccc2)C(=O)N1` (stereo not drawn): the pEC50 was less than 5.14 and the negative-log IC50 (pIC50) is less than 5.14. Consider `N#C/C(=C/N1C(=O)CC(=O)NC1=S)C(N)=O`, for which the pEC50 was less than 3.70 and the negative logarithm of the IC50 (pIC50) was less than 3.70. Regarding `O=C1Nc2ccccc2Nc2nc3cccccc-3c21`, the pEC50 was less than 4.00 and the negative logarithm of the IC50 (pIC50) was less than 4.00. Regarding `COC1(OC)C(N(C)C)=C(Cl)C(=O)/C1=C/C=O`, the pEC50 is less than 3.60 and the negative-log IC50 (pIC50) is 4.14.

With `CC(=O)Nc1ccc(Nc2nc(=O)[nH]c(=O)[nH]2)cc1`, the pEC50 is less than 3.70 and the pIC50 is less than 3.70. Regarding `COc1cccc(/C=C/c2nc3ccccc3nc2/C=C/c2cccc(OC)c2OC)c1OC`, the pEC50 was less than 3.70 and the negative logarithm of the IC50 (pIC50) was 4.26. `O=C(NCCCN1CC2CCCC2C1)C(c1ccccc1)c1ccccc1` (stereo not drawn): the pEC50 was less than 3.70 and the pIC50 was 4.40. For `COC(=O)c1ccc(CSc2ccccc2C(=O)OC)cc1`, in that order: less than 4.64 and 4.72. For `CCN(CC)CCC(=O)OC1C(C)=CC(C)C(=O)CC(C(C)CC2CCC(O)C(OC)C2)OC(=O)C2CCCCN2C(=O)C(=O)[C@@]2(O)OC(CCC2C)CC(OC)\C(C)=C/C=C/C=C/C(C)CC(C)C(=O)C1OC` (stereo partly drawn), in that order: less than 3.70 and 5.04. The corresponding values for `OCCN1c2ccccc2Sc2ccc(Cl)cc21` are less than 3.70 and 4.21.

For the compound `CC1(C)C(=O)C(C)(C)C1=NNC(N)=S`, the pEC50 is less than 3.38 and the pIC50 was 3.58.

With `CC(C)C1NC(=O)CC(c2ccccc2)N(N=O)C1c1ccccc1` (stereo not drawn), the pEC50 was less than 4.11 and the negative-log IC50 (pIC50) was less than 4.11. Consider `CC(=O)C(N=Nc1ccc(S(=O)(=O)NC2ONC(C)C2C)cc1)C(=O)Nc1ccc(Cl)cc1` (stereo not drawn), for which the pEC50 was less than 3.70 and the pIC50 was 4.44. Consider `COc1ccc(/C=C2\NC(=S)N(/C=C3\C(=O)Oc4ccccc4C3=O)C2=O)cc1`, for which the pEC50 was less than 3.70 and the negative logarithm of the IC50 (pIC50) was 3.83. On to `COc1ccc(-c2nc(-c3cc4ccccc4oc3=O)cs2)cc1`, for which the pEC50 was less than 4.00 and the pIC50 is less than 4.00. Regarding `CCSC1=N/C(=C\c2ccccc2O)C(Nc2ccc(C)cc2)=N1`, the pEC50 is less than 4.00 and the pIC50 is less than 4.00.

For the compound `COc1ccc(C(Nc2nc3c(ncn3COCCOP(=O)(OCOC(=O)C(C)(C)C)OCOC(=O)C(C)(C)C)c(=O)[nH]2)(c2ccccc2)c2ccccc2)cc1`, the pEC50 was less than 4.00 and the pIC50 was 5.06.

Consider `C=CCn1cnc2c(=O)[nH]c(Nc3ccccc3)nc21`, for which the pEC50 is less than 3.82 and the negative logarithm of the IC50 (pIC50) was less than 3.82.

Regarding `CC(=O)NC1=N/C(=C\c2ccc(Cl)cc2)C(=O)N1/C=C1\C(=O)Oc2ccccc2C1=O`, the pEC50 is less than 3.70 and the pIC50 was 4.06. Turning to `O=[N+]([O-])c1ccc2[nH]c(=S)n(/C=C(/c3ccc(Cl)cc3)S(=O)(=O)Cc3ccc(Cl)cc3)c2c1`, the pEC50 is less than 3.70 and the pIC50 was 3.99. With `CC(C)(N=NC(C)(C)C1=NCCN1)C1=NCCN1`, the pEC50 is less than 3.70; the negative-log IC50 (pIC50) is 3.98 and 4.08. As for `CC(=O)N(CC(=O)C(=O)NNc1ccoc1)c1ccc(Cl)cc1`, the pEC50 was less than 3.70 and the negative-log IC50 (pIC50) was less than 3.70. `CC1=C(C)C(=O)c2c(cc3c4ccccc4ccn23)C1=O`: the outcome was inactive. For the compound `CCC(=O)N(c1ccccc1)C(C)CN1CCC(O)(c2ccccc2)CC1` (stereo not drawn), the pEC50 is less than 3.70 and the negative-log IC50 (pIC50) was less than 3.70. For the compound `COc1ccc(OC)c2c1C1CCC(=O)N1CN2C(C)=O` (stereo not drawn), the result was inactive. With `COc1ccc2[nH]c3c4c(ccc3c2c1)C(=O)C=CC4=O`, the pEC50 is less than 4.03 and the negative logarithm of the IC50 (pIC50) was 5.35. Consider `CCN(Cc1cccc(S(=O)(=O)[O-])c1)c1ccc(C(=C2C=CC(=[N+](CC)Cc3cccc(S(=O)(=O)O)c3)C=C2)c2ccccc2)cc1`, for which the negative-log EC50 (pEC50) was 3.83 and the negative-log IC50 (pIC50) is 3.73. Regarding `O=[P+](O)c1cc2ccccc2c2ccccc12`, the result was inactive.
